# Where two headings read alike, the source gives them in different places.
# Columns and labels:
# A1 adenosine receptor = target: T1, A1 adenosine receptor (Rattus norvegicus, UniProt P25099); assay: biochemical; details: rat whole brain membranes, 3H-CHA; Table II; read-out: Adenosine Receptor Binding Activity/IC50 (nM) A1
# T1 sequence (P25099 1-326): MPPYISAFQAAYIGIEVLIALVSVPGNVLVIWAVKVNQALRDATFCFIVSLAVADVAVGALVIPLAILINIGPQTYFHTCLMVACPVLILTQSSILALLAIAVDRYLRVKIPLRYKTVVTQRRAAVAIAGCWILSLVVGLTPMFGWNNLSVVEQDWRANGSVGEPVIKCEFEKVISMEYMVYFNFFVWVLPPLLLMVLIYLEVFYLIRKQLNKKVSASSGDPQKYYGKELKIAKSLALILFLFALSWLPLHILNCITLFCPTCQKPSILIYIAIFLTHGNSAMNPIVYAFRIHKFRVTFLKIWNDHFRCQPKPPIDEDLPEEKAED
# Protocol: Non-specific binding was assessed in the presence of 1 mM theophylline.
# The assays were run in glass test tubes in duplicate at 25° C. Once the membranes were added, the tubes were vortexed and incubated at 25° C. for 60 minutes (A1 assay) or 90 minutes (A2 assay) on a rotary shaker. The assay tubes were vortexed halfway through the incubation and again near the end. The assays were terminated by rapid filtration through 2.4 cm GF/B filters using a Brandel Cell Harvestor. The test tubes were washed three times with cold 50 mM tris-HCl (pH 7.7 or 7.4), with filtration being completed within 15 seconds. The damp filter circles were placed in glass scintillation vials filled with 10 ml of Aquasol II (New England Nuclear). The vials were allowed to shake overnight on a rotary shaker and were placed into a liquid scintillation analyzer for two minute counts. IC50 values for receptor binding, i.e. the concentration at which a compound of the invention displaced the radiolabeled standard, were obtained using a curve-fitting computer program (RS/1, Bolt, Beranek and Newman, Boston, Mass.).
# A2 adenosine receptor = A2 adenosine receptor (Rattus norvegicus, UniProt P30543); assay: biochemical; details: rat brain striatum membranes, 3H-CGS 21680; Table II; read-out: Adenosine Receptor Binding Activity/IC50 (nM) A2
# swine coronary arteries = assay: In vitro vasorelaxation in isolated swine coronary arteries (PGF2α-contracted rings); format: cell-based; details: Sus scrofa; 50% reduction in tension, 3 μM PGF2α; Table II; read-out: Vasorelaxation in Swine Coronary Artery/IC50
# Protocol: Swine coronary arteries were obtained from a local slaughter house, dissected carefully and cleaned of fat, blood and adhering tissue. Rings approximately 2-3 mm wide were cut and transferred to water-jacketed tissue baths (10 ml) filled with warm (37° C.), oxygenated (O2 /CO2 :95%/5%) Krebs-Henseleit buffer and mounted on L-shaped hooks between stainless steel rods and a force transducer. […] Rings were equilibrated for 90 minutes with frequent buffer changes at a resting tension of 5 g In order to assure optimal tension development, arterial rings were primed twice with 36 mM KCl and once with 10 μm. PGF2α, before being exposed to 3 μM PGF2α. […] Tension achieved with 3 μM PGF2α was considered .equivalent to 100%; all other values were expressed as a percentage of that maximum.
# [1] = tested on: normotensive anesthetized rat; assay: In vivo mean arterial pressure and heart rate in normotensive anesthetized rat; details: iv
# Protocol: Normotensive rats were anesthetized with sodium pentobarbital (50 mg/kg, j.p.) and placed on a heated surgical table. Cannulas were inserted into the femoral artery and […] to allow the measurement of arterial pressure and to facilitate the intravenous administration of test compounds. The animals was allowed to equilibrate for 10 minutes after surgery. Mean arterial pressure was continuously measured and recorded and heart rate was monitored using the arterial pressure pulse to trigger a cardiotachometer. After baseline parameters were established and recorded, increasing doses (1, 3, 10, 30, 100, 300 and 1000 μg/kg) of the compound of the invention to be tested were administered intravenously. Maximal changes in the cardiovascular parameters were observed after each dose of the adenosine agonist. Only one compound was administered per rat.
# [2] = tested on: spontaneously hypertensive rat (SHR); assay: Oral antihypertensive activity in conscious spontaneously hypertensive rat (SHR); format: in vivo; details: for SHR MAP/%: D = decrease; for SHR HR/%: I = increase
# Protocol: The oral antihypertensive activity of compounds of the invention were examined in conscious spontaneously hypertensive rats. The rats were anesthetized with sodium pentabarbatol (50 mg/kg i.p.). A telemetry transducer was implanted into the rats abdomen via midline incision. The cannula of the transducer was inserted into the abdomenal aorta to allow direct measurement of arterial pressure in the conscious SHR. The transducer was secured to the abdomenal wall. After recovery from surgery (minimum of seven days), the SHR were placed on a receiver plate and the transducer/transmitter was activated. Systolic, diastolic and mean arterial pressure and heart rate were recorded for 1.5 hours in the unrestrained conscious rat to establish a stable baseline. Each rat then received a single dose of the compound of the invention to be tested, or vehicle, and changes in arterial pressure and heart rate were monitored for 20 hours and recorded.
# rat adipocytes = assay: In vitro lipolysis assay in rat adipocytes (glycerol production); format: cell-based; details: Rattus norvegicus, Adipocyte; for EC50: read-out: EC50 (50% inhibition of glycerol production), unit nM in cell
# Protocol: Adipose tissue is removed from anesthetized rats and rinsed twice in incubation medium (2.09 g sodium bicarbonate and 0.04 g EDTA, disodium salt, in 1 L Krebs buffer). Each rat (300-350 g) yields approximately 4 ml of adipose tissue. The adipose tissue (35 ml) is cut into small pieces with scissors and washed with incubation medium (50 ml). The mixture is poured into the barrel of a 50 ml syringe to which is attached a short piece of clamped tubing instead of a needle. The aqueous phase is allowed to drain. A second wash with incubation medium is passed through the syringe. The tissue is added to 50 ml of collagenase solution (collagenase(90 mg), bovine serum albumin (BSA) (500 mg), and 0.1 M calcium chloride solution (1 ml), in incubation medium (50 ml)) in a 1 L bottle. The mixture is shaken in an environmental at 37° C. for about 60 minutes under an atmosphere of 95% oxygen/5% carbon dioxide to effect digestion of the tissue. The dispersed cells are poured through 2 layers of cheese cloth into a 100 ml plastic beaker. The undigested clumps in the cloth are rinsed once with incubation medium (20 ml). The cells in the beaker are centrifuged in 2 plastic tubes for 30 seconds at room temperature at 300 rpm. The aqueous phase is aspirated from beneath the loosely packed layer of floating fat cells and discarded. The adipocytes are gently poured into a 250 ml plastic beaker containing 100 ml of rinse solution (1 g BSA per 100 ml incubation medium). After gentle stirring the centrifugation step is repeated. Another wash with rinse solution follows. The cells are pooled and their volume is estimated with a graduated cylinder. The adipocytes are diluted in twice their volume of assay buffer (incubation medium (120 ml), BSA (1.2 g), pyruvic acid (13 mg)).
# The assay is performed in 20 ml plastic scintillation vials and the total assay volume is 4.2 ml. Assay buffer (2.5 ml), diluted adipocytes (1.5 ml), and a solution of the compound to be tested (12.3 μL) adenosine agonist (12.3 μl; varying concentration) is incubated in the environmental shaker for 15 minutes, then the reaction is started with norepinephrine solution (41.2 μL) (10 nM, in a carrier solution containing water (100 ml), BSA (4 mg), and 0.1 M EDTA (20 I. LL))and adenosine deaminase (1 μg/ml, 41.2 μl). After sixty minutes in the shaker the reaction is terminated by putting the vials on ice. […] The hard lipid layer is removed by aspiration and the aqueous layer is assayed for glycerol (400 μl of sample). The positive control is done in the absence of any adenosine agonist, substituting water in place of the solution to be tested.
# [3] = tested on: myocardial infarct in Sprague-Dawley rats; assay: Cardioprotective activity in rat: myocardial infarct size after coronary occlusion/reperfusion; format: in vivo; details: control 63 ± 5, preconditioned 15 ± 8
# Protocol: Adult Sprague-Dawley rats are anesthetized with Inactin (100 mg/kg i.p.). The trachea is intubated and positive pressure ventilation is provided via a small animal respirator. Catheters are placed in the femoral vein and artery for administration of compounds of the present invention to be tested, and measurement of blood pressure, respectively. An incision is made on the left side of the thorax over the pectoral muscles, and the muscles are retracted to expose the fourth intercostal space. The chest cavity is opened and the heart is exposed. A length of 4-0 proline suture is placed through the ventricular wall near the left main coronary artery and is used to interrupt blood flow through the cornary artery by tightening a slip-knot. A pulsed-Doppler flow probe (a device which measures blood flow) is placed on the surface of the heart to confirm that the coronary artery has been porperly identified. […]
# For preconditioning the heart, the coronary artery is occluded (flow is interrupted) for a period of two minutes. […] Infarct size is determined by slicing the heart from apex to base into four to five slices 1-2 mm thick. […] The tissue slices are placed in a video image analysis system and infarct size is determined by planimetry. The effect of the compound of the present invention tested on myocardial infarct size is assessed and used to quantirate the extent of cardioprotective activity. […]
# A2 receptor = details: relative to NECA; cited from earlier work
# A1 and A2 receptors = details: reported developments; cited from earlier work
# Sequence of A2 adenosine receptor (P30543 whole entry): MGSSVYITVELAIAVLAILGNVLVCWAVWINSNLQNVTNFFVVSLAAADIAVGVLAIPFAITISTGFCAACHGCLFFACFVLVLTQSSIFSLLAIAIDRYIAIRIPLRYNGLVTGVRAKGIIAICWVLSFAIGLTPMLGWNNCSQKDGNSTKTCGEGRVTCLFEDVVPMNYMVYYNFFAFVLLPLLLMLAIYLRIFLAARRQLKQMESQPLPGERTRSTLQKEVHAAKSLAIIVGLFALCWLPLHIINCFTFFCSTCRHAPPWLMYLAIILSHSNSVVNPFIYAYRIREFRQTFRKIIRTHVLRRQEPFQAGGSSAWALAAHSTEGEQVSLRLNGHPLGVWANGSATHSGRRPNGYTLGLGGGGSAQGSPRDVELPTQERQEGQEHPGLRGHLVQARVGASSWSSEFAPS
smiles,measurement,setting,value
"CCNC(=O)[C@H]1C[C@@H](n2cnc3c(NCCc4cccs4)ncnc32)[C@H](O)[C@@H]1O [Example 26, (-)-N^6-[(thiophen-2""-yl)ethan-2-yl]carbocyclic adenosine-5'-N-ethyl carboxamide]",IC50,A1 adenosine receptor,87.1 nM
same,IC50,A2 adenosine receptor,63.1 nM
same,EC50,swine coronary arteries,82 nM
same,ED25,"[1]; dose lowering heart rate by 25%, read-out: Blood Press/Heart Rate Anesthetized Rat HR/ED25",> 30 µg/kg
same,ED25,"[1]; dose lowering mean arterial pressure by 25%, read-out: Blood Press/Heart Rate Anesthetized Rat MAP/ED25",4 µg/kg
same,SHR MAP/%,[2]; 2.5 mg/kg,41%
same,SHR HR/%,[2]; 2.5 mg/kg,3%
same,EC50,rat adipocytes,89 nM
same,inhibition at 1 µM,"rat adipocytes; 1 μM, versus positive control, read-out: % Inhibition of glycerol production",96%
"CCNC(=O)[C@H]1C[C@@H](n2cnc3c(N[C@H](C)Cc4ccc(Cl)s4)ncnc32)[C@H](O)[C@@H]1O [Example 6, (-)-[2S-[2α,3α-dihydroxy-4-β-[N6-[2-(5-chloro-2-thienyl)-(1R)-1-methylethyl]amino]-9-adenyl]cyclopentane]-1-β-N-ethylcarboxamide]",IC50,A1 adenosine receptor,2.69 nM
same,IC50,A2 adenosine receptor,12.9 nM
same,EC50,swine coronary arteries,21 nM
same,SHR MAP/%,[2]; 1 mg/kg,18%
same,SHR HR/%,[2]; 1 mg/kg,7%
same,EC50,rat adipocytes,0.76 nM
"CCNC(=O)[C@H]1C[C@@H](n2cnc3c(N[C@H](CC)Cc4sccc4Cl)ccnc32)[C@H](O)[C@@H]1O (single isomer, unassigned) [Example 39, [1S-[1α,2β,3β,4α(S*)]]-4-[7-[[2-(3-chloro-2-thienyl)-1-ethylethyl]amino]-3 H-imidazo[4,5-b]pyridin-3-yl]-N-ethyl-2,3-dihydroxycyclopentane-carboxamide]",% Risk Area Infarcted,"[3]; Compound High: i.v. bolus 10 μg/kg, then 1 μg/kg/minute from 30 minutes prior to occlusion to 2 hours after reperfusion",18 ± 5%
same,% Risk Area Infarcted,"[3]; Compound Low: i.v. bolus 1 μg/kg, then 0.1 μg/kg/minute for 30 minutes prior to occlusion",23 ± 9%
same,EC50,rat adipocytes,5.4 nM
Nc1nc(Nc2ccccc2)nc2c1ncn2[C@@H]1O[C@H](CO)[C@@H](O)[C@H]1O [CV-1808],fold less potent than NECA in affinity for the A2 receptor,A2 receptor,10 fold
same,A2/A1 ratio,A1 and A2 receptors,0.19

# — patent publication US5652366A, “DI (1R)-(-)camphosulfonic acid) salt, preparation thereof and use thereof” (Rhone-Poulenc Rorer Pharmaceuticals Inc., priority 1995, dated 1997)
